We go through 14 molecules from US20260232682A1, “GSPT1 DEGRADER COMPOUNDS” (Captor Therapeutics S.A., priority 2023, published 2026).

Experiment [1] concerns the target [GSPT1]-[compound of formula (I)]-[CRBN/DDB1] complex (Homo sapiens, UniProt P15170+Q96SW2). Nature of the experiment: HTRF ternary complex assay (GSPT1). The format is binding. The following applies: read-out: HTRF ternary complex Average pEC50 by molecule (converted). The protocol: The effect of the molecular glue compounds of the invention on the formation of a ternary complex composed of [GSPT1]-[compound of formula (I)]-[CRBN/DDB1] was investigated.
Mix solution of proteins and reagents was prepared: • 48 nM GSPT1, 52.8 nM 6×His-CRBN/DDB1, 3 nM of Streptavidin-Eu cryptate ([…]) and 6.67 nM of Anti-6×his-d2 ([…]) was prepared in PPI Europium detection buffer (purchased from Cisbio) with 1 mM DTT.
The tested compounds in dose-response were dispensed onto a white 384-well low volume plate (Greiner, 784075). DMSO was backfilled to all wells, resulting in a final DMSO content of 0.5%. Wells containing only DMSO served as background.
The plate was sealed with transparent film and shaken using a VibroTurbulator for 60 sec at level 3.
The plate was then spun down shortly (10 sec, 1000 rcf) and incubated at 25° C. for 180 min.
The read-out was performed with plate reader (Pherastar, BMG Labtech) in time resolved fluorescence mode. Filter settings: TR 337 665 620.
The results were analyzed as follows: • 1) an average of fluorescence for background signal was calculated and used as a negative control; • 2) raw fluorescence values for tested compounds were normalized against negative controls; • 3) saturation curve was fitted to specific binding with Hill slope model; • 4) EC50 and pEC50 values were determined.
On the technique in general: TR-FRET usually uses a lanthanide donor and a delayed reading to cut background.

Experiment [2] relates to GSPT1-HiBiT HEK293 cells. Nature of the experiment: Cell Viability-CTG assay accompanying the Nano-Glo HiBiT assay. In kind it is cell-based. The settings on record: 6 hours treatment, viability of GSPT1-HiBiT HEK293 cells. Here is the method:
In parallel, the Cell Viability-CTG assay was performed to ensure that the potential decrease of the luminescent signal observed in the Nano-Glo HiBiT assay is a result of protein degradation and not a result of decreasing cell viability. For CTG assay accompanying the Nano-Glo HiBiT assay, cells were cultured, seeded and treated as described above. After 6 hours of incubation (37° C., 5% CO2), plates were removed from the incubator and let to equilibrate to RT. Luminescent signal detection was conducted using the CellTiter-Glo Lumiescent Cell Viability Assay (Promega, cat. nr G7573). 10 μL of the Cell Titer Glo reagent was added per well, plates were shaken to facilitate lysis (460 rpm, 4 min, RT) and incubated in the dark for the following 8 min. Luminescence was read using the CLARIOstar multimode plate reader (BMG LABTECH). The raw data (the relative luminescence unit values, RLU) were uploaded under the relevant protocol and analysed in CDDVault data management platform, in a manner similar to the description above. The Mean Minimum values were calculated in CDDVault using non-linear regression and appropriate equations.
On the technique in general: HiBiT is a short tag that completes a luciferase, so light tracks the accessible tagged protein.

The target in experiment [3] is T1, GSPT1-HiBiT protein in GSPT1-HiBiT HEK293 cells (Homo sapiens, UniProt P15170+Q96SW2).
T1 construct: endogenous in cells; host or cells: HEK293 (CRISPR/Cas9 knock-in of HiBiT at the GSPT1 locus)
T1 sequence (P15170 whole entry): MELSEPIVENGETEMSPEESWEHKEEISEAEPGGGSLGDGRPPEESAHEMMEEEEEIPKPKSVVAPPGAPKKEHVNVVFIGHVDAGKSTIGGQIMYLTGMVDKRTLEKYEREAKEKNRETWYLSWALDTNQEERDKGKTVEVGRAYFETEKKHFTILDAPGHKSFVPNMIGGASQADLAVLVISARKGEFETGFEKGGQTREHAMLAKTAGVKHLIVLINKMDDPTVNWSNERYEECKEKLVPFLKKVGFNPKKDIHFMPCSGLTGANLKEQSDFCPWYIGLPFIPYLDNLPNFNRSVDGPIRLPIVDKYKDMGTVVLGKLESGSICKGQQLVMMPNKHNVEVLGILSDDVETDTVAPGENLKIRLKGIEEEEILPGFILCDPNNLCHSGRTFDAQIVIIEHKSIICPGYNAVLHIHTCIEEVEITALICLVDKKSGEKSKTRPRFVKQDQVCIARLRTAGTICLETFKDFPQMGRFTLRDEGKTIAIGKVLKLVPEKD
T1 sequence (Q96SW2 whole entry): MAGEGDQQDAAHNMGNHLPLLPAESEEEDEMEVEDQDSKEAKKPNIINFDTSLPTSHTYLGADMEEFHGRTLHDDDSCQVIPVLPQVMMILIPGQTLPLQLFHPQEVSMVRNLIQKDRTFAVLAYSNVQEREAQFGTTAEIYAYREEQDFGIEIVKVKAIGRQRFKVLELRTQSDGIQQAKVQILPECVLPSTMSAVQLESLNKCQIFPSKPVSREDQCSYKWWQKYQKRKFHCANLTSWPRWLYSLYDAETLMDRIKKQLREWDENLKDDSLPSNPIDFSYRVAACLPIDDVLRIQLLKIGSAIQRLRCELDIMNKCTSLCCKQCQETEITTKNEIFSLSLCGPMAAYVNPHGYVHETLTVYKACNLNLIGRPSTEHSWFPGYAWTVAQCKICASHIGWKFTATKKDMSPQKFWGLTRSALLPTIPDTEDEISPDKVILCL
T1 sequence (Q16531 whole entry partner): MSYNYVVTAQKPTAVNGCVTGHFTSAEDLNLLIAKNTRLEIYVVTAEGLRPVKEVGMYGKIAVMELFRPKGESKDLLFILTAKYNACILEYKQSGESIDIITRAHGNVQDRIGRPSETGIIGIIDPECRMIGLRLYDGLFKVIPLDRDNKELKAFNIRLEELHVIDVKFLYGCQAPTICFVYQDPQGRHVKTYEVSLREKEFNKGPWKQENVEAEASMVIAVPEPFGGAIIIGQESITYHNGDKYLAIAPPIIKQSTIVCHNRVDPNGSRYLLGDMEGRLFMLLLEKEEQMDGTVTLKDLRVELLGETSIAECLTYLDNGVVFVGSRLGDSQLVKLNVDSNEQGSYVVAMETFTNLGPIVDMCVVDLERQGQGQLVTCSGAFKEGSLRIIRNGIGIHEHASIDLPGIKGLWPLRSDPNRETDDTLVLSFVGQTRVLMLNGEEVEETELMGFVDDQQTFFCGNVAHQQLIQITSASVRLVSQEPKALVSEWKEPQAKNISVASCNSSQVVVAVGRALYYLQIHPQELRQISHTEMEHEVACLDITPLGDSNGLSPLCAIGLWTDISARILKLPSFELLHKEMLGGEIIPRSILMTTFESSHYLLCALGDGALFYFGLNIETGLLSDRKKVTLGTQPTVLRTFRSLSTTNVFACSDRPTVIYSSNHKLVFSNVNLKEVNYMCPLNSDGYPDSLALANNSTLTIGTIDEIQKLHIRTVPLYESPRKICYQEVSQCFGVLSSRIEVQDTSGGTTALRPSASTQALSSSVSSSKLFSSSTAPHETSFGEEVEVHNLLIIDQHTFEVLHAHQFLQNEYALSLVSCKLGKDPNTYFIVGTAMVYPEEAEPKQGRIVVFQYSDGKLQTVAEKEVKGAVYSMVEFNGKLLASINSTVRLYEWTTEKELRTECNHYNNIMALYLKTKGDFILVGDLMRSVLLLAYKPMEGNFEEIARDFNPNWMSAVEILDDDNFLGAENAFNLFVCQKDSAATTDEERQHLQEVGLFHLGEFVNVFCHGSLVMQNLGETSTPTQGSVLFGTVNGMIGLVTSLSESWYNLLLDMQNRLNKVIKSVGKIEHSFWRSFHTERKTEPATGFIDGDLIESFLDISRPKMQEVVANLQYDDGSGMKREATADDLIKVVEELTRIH
Kind of experiment: GSPT1 degradation assay using HiBiT system (Nano-Glo HiBiT lytic assay). In kind it is cell-based. The settings on record: 6 hours treatment; for DC50: read-out: HiBiT lytic assay Geomean absolute DC50. The text has this:
The effect of selected compounds of the invention on GSPT1 protein levels was investigated, using the GSPT1-HiBiT HEK293 cell line and the Nano-Glo HiBiT degradation assay protocol below.
GSPT1-HiBiT HEK293 cells were generated in-house using the HEK293 parental cells (ATCC, cat. no 70016364) and the CRISPR/Cas9 system. HEK293 cells were transformed with pSpCas9-BB-2A-Puro v2.0 plasmid carrying gRNA targeting the C-terminus of GSPT1 and ssODN template containing the HiBiT tag sequence with flanking homology sequences. Neon Transfection System (Thermo Fisher Scientific) was used for electroporation. HEK293 GSPT1-HiBiT cells were cultured with DMEM Glutamax (Gibco) supplemented with 10% heat inactivated FBS (Gibco). After transfection the culture medium was changed to DMEM Glutamax with 10% heat-inactivated FBS and 1% Penicillin-Streptomycin (Biowest) supplemented with Puromycin (2 μg/ml; Invivogen) for clonal selection. In order to isolate single cell clones for further validation and analysis, limiting dilution cloning in 96-well plates was performed. When the single clones reached confluency, HiBiT Lytic Assay (Promega) was performed in order to identify HiBiT positive clones. The clone selected for further studies was verified and validated using genotyping and HiBiT Blotting (Promega).
Cells were maintained in DMEM Glutamax medium, supplemented with 1% penicillin/streptomycin and 10% Fetal Bovine Serum (FBS) at 37° C., 5% CO2. Compounds were stored frozen as 20 mM DMSO stocks.
For the Nano-Glo HiBiT assay, cells were seeded onto 384-well white solid bottom plate at 2×10^3 cells/well in 40 μL using the Agilent BioTek MultiFlo FX Multimode Dispenser and incubated overnight. Following overnight incubation (37° C., 5% CO2) cells were treated with the test compounds and vehicle only (DMSO) control using the Echo 555 Liquid Handler. Twelve data-point compound titration curve with concentrations ranging from 10 μM to 0.03 nM was used. Final DMSO concentration was kept constant at 0.25% v/v across the assay plate. After 6 hours of incubation (37° C., 5% CO2), plates were removed from the incubator and let to equilibrate to RT. Luminescent signal detection was conducted using the Nano-Glo HiBiT Lytic Detection System (Promega, cat. nr N3050). Nano-Glo HiBiT Lytic Reagent was prepared freshly by diluting the LgBiT Protein (1:100 vol/vol) and the Nano-Glo HiBiT Lytic Substrate (1:50 vol/vol) in the relevant volume of the Nano-Glo HiBiT Lytic Buffer. 40 μL of the HiBiT Lytic Reagent was added per well, plates were shaken to facilitate lysis (350 rpm, 5 min, RT) and incubated in the dark for the following 10 min. Luminescence was read using the PHERAstar multimode plate reader (BMG LABTECH). The raw data (the relative luminescence unit values, RLU) were uploaded under the relevant protocol and analysed in CDDVault data management platform. Luminescence (RLU) values were normalized to the controls, and reported absolute DC50 values and Dmax values were calculated in CDDVault using non-linear regression and appropriate equations.

Structures are written as SMILES.

Sequence of [GSPT1]-[compound of formula (I)]-[CRBN/DDB1] complex (P15170 whole entry): as the sequence (P15170 whole entry) above
Sequence of [GSPT1]-[compound of formula (I)]-[CRBN/DDB1] complex (Q96SW2 whole entry): as the sequence (Q96SW2 whole entry) above
Sequence of [GSPT1]-[compound of formula (I)]-[CRBN/DDB1] complex (Q16531 whole entry partner): as the sequence (Q16531 whole entry partner) above

Turning to `Cc1ccc(NC(=S)NCc2ccc3cc(C4CCC(=O)NC4=O)c(C)nc3c2)cc1Cl` (centres unmarked) [Compound 2, 1-(3-chloro-4-methylphenyl)-3-((3-(2,6-dioxopiperidin-3-yl)-2-methylquinolin-7-yl)methyl)thiourea], the EC50 in experiment [1] was greater than 3.16 µM.

For the molecule `Cc1ccc(NC(=O)OCc2ccc3cc(C4CCC(=O)NC4=O)c(C)nc3c2)cc1Cl` (centres unmarked) [Compound 4, (3-(2,6-dioxopiperidin-3-yl)-2-methylquinolin-7-yl)methyl (3-chloro-4-methylphenyl)carbamate], in experiment [2], the “CTG assay Mean minimum” value is given as “++++ (++++≥75% of viability of the HiBiT-GSPT1 HEK293 cells)”. In experiment [3], the Dmax (in general, the largest share of the target that was removed) was no less than 75% and the DC50 – broadly, the concentration giving 50% degradation – was 0.01 to 0.05 µM. Besides, in experiment [1], the EC50 was 0.316 to 3.16 µM.

Take `Cc1ccc(NC(=O)OCc2ccc3nc(C)c(C4CCC(=O)NC4=O)cc3c2)cc1Cl` (centres unmarked) [Compound 5, (3-(2,6-dioxopiperidin-3-yl)-2-methylquinolin-6-yl)methyl (3-chloro-4-methylphenyl)carbamate]: in experiment [1], the EC50 is greater than 3.16 µM.

`Cc1nc2cc(COC(=O)Nc3cc(OC(F)(F)F)ccc3F)ccc2cc1C1CCC(=O)NC1=O` (centres unmarked) [Compound 6, (3-(2,6-dioxopiperidin-3-yl)-2-methylquinolin-7-yl)methyl (2-fluoro-5-(trifluoromethoxy)phenyl)carbamate]: the “CTG assay Mean minimum” value in experiment [2] is recorded as “++++ (++++≥75% of viability of the HiBiT-GSPT1 HEK293 cells)”. In experiment [3], the Dmax was no less than 75% and the DC50 lay within 0.01 to 0.05 µM. Moreover, in experiment [1], the EC50 is 0.316 to 3.16 µM.

With `Cc1nc2cc(COC(=O)Nc3ccc(C(C)(C)C)cc3)ccc2cc1C1CCC(=O)NC1=O` (centres unmarked) [Compound 8, (3-(2,6-dioxopiperidin-3-yl)-2-methylquinolin-7-yl)methyl (4-(tert-butyl)phenyl)carbamate], in experiment [2], the “CTG assay Mean minimum” value is recorded as “++++ (++++≥75% of viability of the HiBiT-GSPT1 HEK293 cells)”. Also, in experiment [3], the Dmax was no less than 75% and the half-maximal degradation concentration (DC50) is less than 0.01 µM. For the same molecule, the EC50 in experiment [1] is 0.316 to 3.16 µM.

On to `Cc1nc2cc(COC(=O)Nc3cccc(C(C)(C)C)c3)ccc2cc1C1CCC(=O)NC1=O` (centres unmarked) [Compound 9, (3-(2,6-dioxopiperidin-3-yl)-2-methylquinolin-7-yl)methyl (3-(tert-butyl)phenyl)carbamate], for which the “CTG assay Mean minimum” value in experiment [2] is on record as “++++ (++++≥75% of viability of the HiBiT-GSPT1 HEK293 cells)”. In addition, in experiment [3], the Dmax is no less than 75% and the DC50 was in the range of 0.01 to 0.05 µM. The EC50 in experiment [1] is 0.316 to 3.16 µM.

As to `Cc1nc2cc(COC(=O)Nc3ccc(C(C)(C)C)c(Cl)c3)ccc2cc1C1CCC(=O)NC1=O` (centres unmarked) [Compound 10, (3-(2,6-dioxopiperidin-3-yl)-2-methylquinolin-7-yl)methyl (4-(tert-butyl)-3-chlorophenyl)carbamate], in experiment [2], the “CTG assay Mean minimum” value is “++++ (++++≥75% of viability of the HiBiT-GSPT1 HEK293 cells)”. In experiment [3], the Dmax was no less than 75% and the DC50 is less than 0.01 µM. In addition, in experiment [1], the EC50 is less than 0.316 µM.

As for `COc1ccc(NC(=O)OCc2ccc3cc(C4CCC(=O)NC4=O)c(C)nc3c2)cc1Cl` (centres unmarked) [Compound 11, (3-(2,6-dioxopiperidin-3-yl)-2-methylquinolin-7-yl)methyl (3-chloro-4-methoxyphenyl)carbamate], in experiment [2], the “CTG assay Mean minimum” value is on record as “++++ (++++≥75% of viability of the HiBiT-GSPT1 HEK293 cells)”. Further, in experiment [3], the Dmax is no less than 75% and the DC50 is less than 0.01 µM. The EC50 in experiment [1] is 0.316 to 3.16 µM.

For the molecule `Cc1nc2cc(COC(=O)Nc3ccc(Cl)c(Cl)c3)ccc2cc1C1CCC(=O)NC1=O` (centres unmarked) [Compound 12, (3-(2,6-dioxopiperidin-3-yl)-2-methylquinolin-7-yl)methyl (3,4-dichlorophenyl)carbamate], the “CTG assay Mean minimum” value in experiment [2] is “++++ (++++≥75% of viability of the HiBiT-GSPT1 HEK293 cells)”. Moreover, in experiment [3], the Dmax was no less than 75% and the DC50 was 0.01 to 0.05 µM. In addition, in experiment [1], the EC50 was 0.316 to 3.16 µM.

Turning to `Cc1nc2cc(COC(=O)Nc3ccc4c(c3)OCO4)ccc2cc1C1CCC(=O)NC1=O` (centres unmarked) [Compound 14, (3-(2,6-dioxopiperidin-3-yl)-2-methylquinolin-7-yl)methyl benzo[d][1,3]dioxol-5-ylcarbamate], in experiment [2], the “CTG assay Mean minimum” value was “++++ (++++≥75% of viability of the HiBiT-GSPT1 HEK293 cells)”. Also, in experiment [3], the maximal degradation (Dmax) is no less than 75% and the DC50 was 0.01 to 0.05 µM. The EC50 in experiment [1] is 0.316 to 3.16 µM.

`Cc1nc2cc(COC(=O)Nc3ccc4c(c3)OCCO4)ccc2cc1C1CCC(=O)NC1=O` (centres unmarked) [Compound 15, (3-(2,6-dioxopiperidin-3-yl)-2-methylquinolin-7-yl)methyl (2,3-dihydrobenzo[b][1,4]dioxin-6-yl)carbamate]: in experiment [2], the “CTG assay Mean minimum” value was “++++ (++++≥75% of viability of the HiBiT-GSPT1 HEK293 cells)”. Further, in experiment [3], the Dmax was no less than 75% and the DC50 is less than 0.01 µM. Moreover, in experiment [1], the EC50 is 0.316 to 3.16 µM.

Take `Cc1nc2cc(COC(=O)Nc3cc(Cl)c(C)c(CN4CCOCC4)c3)ccc2cc1C1CCC(=O)NC1=O` (centres unmarked) [Compound 17, (3-(2,6-dioxopiperidin-3-yl)-2-methylquinolin-7-yl)methyl (3-chloro-4-methyl-5-(morpholinomethyl)phenyl)carbamate]: the “CTG assay Mean minimum” value in experiment [2] is listed as “++++ (++++≥75% of viability of the HiBiT-GSPT1 HEK293 cells)”. In experiment [3], the Dmax was no less than 75% and the DC50 was less than 0.01 µM. The EC50 in experiment [1] is less than 0.316 µM.

`Cc1nc2cc(COC(=O)Nc3ccc(C(F)(F)F)c(Cl)c3)ccc2cc1C1CCC(=O)NC1=O` (centres unmarked) [Compound 18, (3-(2,6-dioxopiperidin-3-yl)-2-methylquinolin-7-yl)methyl (3-chloro-4-(trifluoromethyl)phenyl)carbamate]: the “CTG assay Mean minimum” value in experiment [2] is reported as “++++ (++++≥75% of viability of the HiBiT-GSPT1 HEK293 cells)”. Moreover, in experiment [3], the Dmax is no less than 75% and the DC50 lay in the range of 0.01 to 0.05 µM. Also, in experiment [1], the EC50 is 0.316 to 3.16 µM.

As for `Cc1nc2cc(COC(=O)Nc3cccc(OC(F)(F)F)c3)ccc2cc1C1CCC(=O)NC1=O` (centres unmarked) [Compound 19, (3-(2,6-dioxopiperidin-3-yl)-2-methylquinolin-7-yl)methyl (3-(trifluoromethoxy)phenyl)carbamate], the “CTG assay Mean minimum” value in experiment [2] is “++++ (++++≥75% of viability of the HiBiT-GSPT1 HEK293 cells)”. Also, in experiment [3], the Dmax was no less than 75% and the 50% degradation concentration (DC50) is less than 0.01 µM. For the same molecule, in experiment [1], the EC50 is greater than 3.16 µM.
